Data on two compounds can be found in patent US20220031684A1, “PROPHYLACTIC EFFICACY OF SEROTONIN 4 RECEPTOR AGONISTS AGAINST STRESS” (THE TRUSTEES OF COLUMBIA UNIVERSITY IN THE CITY OF NEW YORK, priority 2019, published 2022).

What all share (format): in vivo
In experiment [1] the test system is BALB/cJRj mice. In words: Novelty suppressed feeding (NSF), acute anxiolytic-like effect. The settings on record: for lag for feeding in the NSF: single dose 1.5 mg/kg, 72 hours after the injection. On the procedure: RS67333 (1.5 mg/kg, i.p.), diazepam (1.5 mg/kg, i.p.), fluoxetine (18 mg/kg, i.p.) were injected 45 min before testing in the Elevated Plus Maze (EPM), the Novelty Suppressed Feeding (NSF) or the Open Field (OF) in three independent cohorts of male BALB/cJRj mice.
To ensure the selectivity of the anxiolytic-like effects of RS67333, in a new cohort of male BALB/cJRj mice, GR125487 (1.0 mg/kg, i.p.) dissolved in 0.9% NaCl solution, was injected 15 minutes before RS67333 administration (1.5 mg/kg, i.p.). EPM or NSF occurred 45 min after RS67333 administration (A-S1). Behavioral consequences of the co-administration of GR125487+RS67333 were compared to RS67333 alone, diazepam (1.5 mg/kg, i.p.) fluoxetine (18 mg/kg, i.p.) and vehicle groups (0.9% saline solution, i.p.).
For mPFC drug infusion, two bilateral cannulae (75 μm-diameter silica capillary tubing inserted in 27G stainless steel catheter) were implanted in the mPFC [stereotaxic coordinates in mm from bregma: A=+2.10, L=±0.50, V=−2.60, A, anterior; L, lateral; and V, ventral, according to (A-S10)] under anesthesia (chloral hydrate, 400 mg/kg, i.p.). […] Diazepam (1.5 mg/kg) was used as a positive control.
The NSF is a conflict test that elicits competing motivations: the drive to eat and the fear of venturing into the center of a brightly lit arena. The latency to begin eating is used as an index of anxiety/depression-like behavior, because classical anxiolytic drugs as well as chronic antidepressants decrease this measure. The NSF test was carried out during a 10 min period as previously described (A-S12). Briefly, the testing apparatus consisted of a plastic box (50×50×20 cm), the floor of which was covered with approximately 2 cm of wooden bedding. Twenty-four hours prior to behavioral testing, all food was removed from the home cage. At the time of testing, a single pellet of food (regular chow) was placed on a white paper platform positioned in the center of the box. Each animal was placed in a corner of the box, and a stopwatch was immediately started. The latency to eat (defined as the mouse sitting on its haunches and biting the pellet with the use of forepaws) was timed. Immediately afterwards, the animal was transferred to its home cage, and the amount of food consumed by the mouse in the subsequent 5 min was measured, serving as a control for change in appetite as a possible confounding factor.

Experiment [2] deals with BALB/cJRj mice. In words: Open field paradigm (OF), acute anxiolytic-like effect. The settings on record: for percent time spent in Center (OF) vs vehicle: male BALB/cJRj, RS67333 1.5, diazepam 1.5, fluoxetine 18 mg/kg; for time spent in the center of the OF: single dose 1.5 mg/kg, 48 hours after the injection. The source says: Motor activity was quantified in four 39×39 cm perpex plastic open field boxes (Vivo-tech/Ugo Basile, Salon de Provence, France). The apparatus was illuminated from the ground with special designed 40×40 cm Infra-red backlights (monochromatic wavelength 850 nm high homogeneity, Vivo-tech, Salon de Provence, France). Activity chambers were monitored by four black and white cameras with varifocal optics and polarizing filters (Vivo-tech, Salon de Provence, France). For optogenetic experiments, optical bandpass filters were specifically selected to improve tracking detection. The whole set-up was controlled using ANYMAZE version 6 video tracking software (Stoelting Co/Vivo-tech, Salon de Provence, France). Dependent measures were time in the center over a 10 min for systemic administration or 6 min test period for optogenetic experiments, total ambulatory distance and ambulatory distance traveled in the center divided by total distance.

Experiment [3] relates to BALB/cJRj mice. In words: EPM with optogenetic inhibition of mPFC terminals in the DRN (CaMKII-ArchT). The settings on record: for time, percent time spent in the open arms (EPM), light OFF / inhibition of the drug-induced increase in open-arm time (EPM) during 3-min green light illumination: intra-mPFC RS67333 0.5 pg/side or diazepam 1.5 pg/side; for inhibition of the drug-induced increase in open-arm time (EPM) during 3-min green light illumination: light ON. On the procedure:
The EPM is a widely used behavioral assay for rodents and it has been validated to assess the anti-anxiety effects of pharmacological agents (A-S11). This test was performed as described by (A-S1). The maze is a plus-cross-shaped apparatus, with two open arms and two arms closed by walls linked by a central platform 50 cm above the floor. Mice were individually put in the center of the maze facing an open arm and were allowed to explore the maze during 5 min for the behavioral consequences of an acute systemic administration or mPFC infusion and during 6 min for the optogenetic experiments. The time spent in and the numbers of entries into the open arms were used as an anxiety index. All parameters were measured using a videotracker (EPM3C, Bioseb, Vitrolles, France).
To target opsin expression selectively to cortical glutamatergic terminals in the DRN, AAV5-CaMKIIα-ChR2-enhanced yellow fluorescent protein (eYFP), AAV5-CaMKII-ArchT-green fluorescent protein (GFP) or AAV5-CaMKII-eYFP, obtained from Karl Deisseroth and Ed Boyden (UNC Vector Core, NC, USA) were bilaterally injected into the mPFC (in mm from bregma, A=+2.10, L=±0.50, V=−2.60). Mice injected with AAV5-CamKII-eYFP were used as control.
BALB/cJRj mice were surgically implanted with fiber optics targeted to the DRN (in mm from bregma, A=−4.50, L=+1.20, V=−4.0, angle 15°). A […] core, 0.37 NA fiber optic (ThorLabs, ˜10-12 and 15-16 mW for ChR2 and Arch-T, respectively, at the tip of optic) was used for optical stimulation via a patch cable connected to either a 473 or 532 nm laser diode (OEM laser systems, USA) as previously described (A-S15). For behavioral experiments, AAV5-CaMKIIα-ChR2-eYFP mice and their controls received a 10 Hz stimulation, 20 ms pulses, over a 3-minute period whereas a green light was delivered continuously to AAV5-CaMKII-ArchT-GFP throughout the 3 min testing period. Similar doses of RS67333 (locally in the mPFC at […] or at 1.5 mg/kg, i.p.) and diazepam (locally in the mPFC at […] or at 1.5 mg/kg, i.p.) were infused in the mPFC or administered i.p. The stimulation or the inhibition of mPFC projections in the DRN occurred simultaneously to the behavioral paradigms.

In experiment [4] the test system is BALB/cJRj mice. In words: Elevated plus maze (EPM), acute anxiolytic-like effect. The settings on record: single dose 1.5 mg/kg; 24 hours after the injection.
Where [5] appears, read: CaMKII-ArchT-mPFC injected mice, systemic RS67333 1.5 mg/kg or diazepam 1.5 mg/kg.
Setting [6] is: CamKII-ArchT mice, intra-mPFC infusion.

Counter-ions that a name gives are not always drawn.

On to `CN1C(=O)CN=C(c2ccccc2)c2cc(Cl)ccc21` [diazepam, Diazepam hydrochloride], for which, in the experiment with BALB/cJRj mice [1] (male BALB/cJRj, i.p. 45 min before testing, RS67333 1.5, diazepam 1.5, fluoxetine 18 mg/kg, hydrochloride), the “latency to feed (NSF) vs vehicle” value is on record as “decreased the latency to feed”. In addition, in the experiment with BALB/cJRj mice [1], the “lag for feeding in the NSF” value is “have not been able to observe any long-term activity”. Besides, in the experiment on BALB/cJRj mice [2] (i.p. 45 min before testing, RS67333 1.5, diazepam 1.5 mg/kg), the “ratio of ambulatory distance in the center divided by total distance (OF) vs vehicle” value is “significantly increased”. Further, the “percent time spent in Center (OF) vs vehicle” value in the experiment with BALB/cJRj mice [2] (i.p. 45 min before testing) is on record as “increase”. Besides, the “time spent in the center of the OF” value in the experiment with BALB/cJRj mice [2] is given as “have not been able to observe any long-term activity”. In addition, in the experiment with BALB/cJRj mice [3] (setting [5]), the “decrease in time spent in the open arms (EPM), light ON vs light OFF” value is 17%; the “time, percent time in open arms and ratio open arms/total distance (EPM), light OFF vs vehicle” value was “increased time, percent time spent in open arms”. Besides, in the experiment on BALB/cJRj mice [3] (CamKII-ArchT mice), the “time, percent time spent in the open arms (EPM), light OFF” value is given as “increased significantly time” and the “inhibition of the drug-induced increase in open-arm time (EPM) during 3-min green light illumination” value amounted to 85±5%. Moreover, in the experiment with BALB/cJRj mice [3] (setting [6]), the “drug-induced increase of ratio open arms/total distance (EPM), light ON” value was “blocked” and the “ratio of ambulatory distance in open arms divided by total distance (EPM), light OFF vs controls” value is recorded as “increased the ratio”. Besides, in the experiment on BALB/cJRj mice [4], the “anxiolytic effects in the EPM” value is “have not been able to observe any long-term activity”.

For `CCCCN1CCC(CCC(=O)c2cc(Cl)c(N)cc2OC)CC1.Cl` [RS-67,333, 1-(4-amino-5-chloro-2-methoxyphenyl)-3-[1(n-butyl)-4-piperidinyl]-1-propanone HCl], the “latency to feed (NSF) vs vehicle” value with BALB/cJRj mice [1] (intra-mPFC infusion of RS67333 45 min before testing) is “decreased latency to feed”. For the same compound, in the experiment on BALB/cJRj mice [1] (male BALB/cJRj, i.p. 45 min before testing, RS67333 1.5, diazepam 1.5, fluoxetine 18 mg/kg), the “latency to feed (NSF) vs vehicle” value is given as “decreased the latency to feed”. For the same compound, in the experiment with BALB/cJRj mice [1], the “lag for feeding in the NSF” value is “reduced the lag for feeding”. The “percent time spent in Center (OF) vs vehicle” value in the experiment with BALB/cJRj mice [2] (i.p. 45 min before testing) was “increase”. Moreover, in the experiment on BALB/cJRj mice [2], the “time spent in the center of the OF” value is reported as “increased the time spent in the center”. Also, the “decrease in time spent in the open arms (EPM), light ON vs light OFF” value with BALB/cJRj mice [3] (setting [5]) was found to be 24%. For the same compound, in the experiment with BALB/cJRj mice [3] (CamKII-ArchT mice), the “time, percent time spent in the open arms (EPM), light OFF” value is given as “increased significantly time” and the “inhibition of the drug-induced increase in open-arm time (EPM) during 3-min green light illumination” value amounted to 70±8%. Further, in the experiment on BALB/cJRj mice [4], the “anxiolytic effects in the EPM” value is on record as “have not identified the anxiolytic effects expected”.
